Assay results reported in PMC5491903, “The Selective Phosphoinoside-3-Kinase p110δ Inhibitor IPI-3063 Potently Suppresses B Cell Survival, Proliferation, and Differentiation” (Frontiers in Immunology, 2017).

Columns and labels:
[1] = test system: LPS-stimulated mouse B cells; test: mouse plasmablast differentiation (CD138+B220lo); format: cell-based; details: 72 h
Procedure: Figure 5 IPI-3063 potently […] mouse B cell antibody switching and inhibits plasmablast differentiation. Purified B cells were pretreated with inhibitors, then stimulated with αCD40 + IL-4 (B) or LPS + IL-4 (C) for 96 h to induce switching to IgG1 or LPS (D) for 72 h to induce plasmablast differentiation. Class switching to IgG1 was measured by the 7AAD^−CFSE^loB220^+IgG1^+ cells [(A), upper panels]. Plasmablast percentages were calculated by % 7AAD^−CFSE^loCD138^+B220^lo population [(A), lower]. Supernatant was harvested (E) for IgM ELISA. Concentrations used were 1 nM, 10 nM, 100 nM, 1 µM for IPI-443 and 1, 10, 30, 100 nM for IPI-3063. Low concentrations of IPI-3063 were 0.01 and 0.1 nM (D). AS252424 concentrations were 100 nM, 300 nM, and 1 µM, and GDC-0941 was at 500 nM. Samples were collected by time (*P < 0.05, **P < 0.001, ***P < 0.0001 one-way ANOVA with Newman–Keuls multiple comparison test). […]
We also evaluated plasmablast differentiation and IgM secretion in LPS-stimulated cells (Figure 5D). […]
Mouse splenic B cells were purified by negative selection (eBioscience Magnisort Mouse B cell enrichment kit). B-cell purity was >95% as measured by FACS analysis (FACSCalibur and CellQuest software; BD Biosciences) using anti-B220 antibody (BioLegend). […]

human B cells = test: human B cell proliferation (CFSE); format: cell-based; details: CD40L + anti-human IgM/IgG + hIL-2 + hIL-21, 120 h
Procedure: We also tested the effects of these inhibitors on human B cell proliferation stimulated with human CD40L + anti-human IgM/IgG + hIL-2 + hIL-21. We stimulated CFSE-stained human B cells for 120 h in the presence of GDC-0941, IPI-3063, IPI-443, or AS-252424 at various concentrations. […] IPI-443 caused a dose-dependent decrease in proliferation, whereas AS-252424 had no effect.
(A–C) Purified human B cells were pretreated with inhibitors for 30 min, then stimulated with human CD40L + anti-human IgM/IgG + human IL-2 + human IL-21 for 120 h. Concentrations used were 1 nM, 10 nM, 100 nM, and 1 µM for IPI-443, and 0.1, 1, 10, and 100 nM for IPI-3063. AS252424 concentrations were 100 nM, 300 nM, and 1 µM, and GDC-0941 was at 500 nM. Total numbers and percent divided were determined by the number of CD19^+7AAD^−CFSE^lo cells. Samples were collected by time (*P < 0.05, **P < 0.001, ***P < 0.0001 one-way ANOVA with Newman–Keuls multiple comparison test).
Peripheral blood from normal volunteers was obtained through an Institutional Review Board-approved protocol. Peripheral blood mononuclear cells (PBMCs) were first purified from blood by density gradient centrifugation using Ficoll-Paque. […] B-cell purity was increased from 4% to >70% as measured by FACS analysis (FACSCalibur and CellQuest software; BD Biosciences) using anti-CD19 PE conjugated antibody (eBioscience). […]

Row | SMILES | effect on plasmablast differentiation [1] | effect on proliferation (human B cells) | concentration that decreases plasmablast differentiation ([1]; % CD138+B220lo) | concentration that significantly reduces proliferation (human B cells)
1 | O=C1NC(=O)/C(=C/c2ccc(-c3ccc(F)cc3O)o2)S1 [AS-252424, reference compound] | no significant effect | no effect | – | –
2 | CC(C)n1c([C@H](C)Nc2ncnc(N)c2C#N)cc2cccc(-c3ccc(=O)n(C)c3)c2c1=O [IPI-3063] | – | – | ≥ 1 nM | ≥ 1 nM
